According to US7507727B2, “Substituted quinobenzoxazine analogs and methods of using thereof” (Cylene Pharmaceuticals, Inc., priority 2003, dated 2009):

Molecular target: c-Myc template DNA (c-myc quadruplex)
Assay: Quadruplex binding / stop assay (Taq polymerase arrest, capillary electrophoresis)
Conditions: read-out: S DATA; Table 1D, stop assay data

| SMILES | IC50 [µM] |
| --- | --- |
| CN1CCCC1CCNC(=O)c1cn2c3c(c(N4CCC(c5ccccc5F)C4)c(F)cc3c1=O)Oc1cc3ccccc3cc1-2 (centres unmarked) [compound 1771] | 10 |
| O=C(NCCCN1CCOCC1)c1cn2c3c(c(NCCCN4CCOCC4)ccc3c1=O)Oc1cc3ccccc3cc1-2 [compound 1530] | > 15 |
| CC(C)(C)OC(=O)NC1CCN(c2ccc3c(=O)c(C(=O)NCCCN4CCOCC4)cn4c3c2Oc2cc3ccccc3cc2-4)C1 (centres unmarked) [compound 1536] | > 15 |
| CC(C)N1CCN(c2c(F)cc3c(=O)c(C(=O)N4CCN(C)CC4)cn4c3c2Oc2ccccc2-4)CC1 [compound 1570] | > 15 |
| CC(C)N1CCN(c2c(F)cc3c(=O)c(C(=O)N4CCC(NC(=O)OC(C)(C)C)C4)cn4c3c2Oc2ccccc2-4)CC1 (centres unmarked) [compound 1564] | > 15 |

More lines, now with the values ahead:

| IC50 [µM] | SMILES |
| --- | --- |
| 1.75 | CN1CCCC1CCNC(=O)c1cn2c3c(c(N4CCNC(c5cccnc5)C4)c(F)cc3c1=O)Oc1cc3ccccc3cc1-2 (centres unmarked) [compound 1513] |
| 8 | CC(C)N1CCN(c2c(F)cc3c(=O)c(C(=O)NCCN4CCCC4)cn4c3c2Oc2cc(Cl)ccc2-4)CC1 [compound 1797] |
| > 15 | CN1CCN(CCCNc2c(F)cc3c(=O)c(C(=O)NCCCCN)cn4c3c2Oc2ccccc2-4)CC1 [compound 1579] |
| 1 | CN(C)CCCCNc1ccc2c(=O)c(C(=O)NCCN3CCCC3)cn3c2c1Oc1cc2ccccc2cc1-3 [compound 1540] |
| > 15 | O=C(NCCN1CCCC1)c1cn2c3c(c(N4CC5CCCNC5C4)ccc3c1=O)Oc1ccccc1-2 (centres unmarked) [compound 1731] |
| 1.75 | CN1CCCC1CCNC(=O)c1cn2c3c(c(NCCCCO)c(F)cc3c1=O)Oc1cc3ccccc3cc1-2 (centres unmarked) [compound 1661] |
| > 15 | CN(C)CCCCNC(=O)c1cn2c3c(c(NCCCN4CCN(C)CC4)c(F)cc3c1=O)Oc1ccccc1-2 [compound 1578] |
| 4 | CN1CCCC1CCNC(=O)c1cn2c3c(c(NC[C@@H]4CCCO4)c(F)cc3c1=O)Oc1cc3ccccc3cc1-2 (some centres unmarked) [compound 1737] |
| 1.75 | CN1CCCC1CCNC(=O)c1cn2c3c(c(NCC4CCNCC4)c(F)cc3c1=O)Oc1cc3ccccc3cc1-2 (centres unmarked) [compound 1481] |
| > 15 | O=C(NCCN1CCCC1)c1cn2c3c(c(SCCc4cnccn4)c(F)cc3c1=O)Oc1cccnc1-2 [compound 1786] |

Same assay, conditions: read-out: Stop Data c-Myc μM; concentration at which 50% of the DNA was arrested (arrested:full-length 1:1)

| IC50 [µM] | SMILES |
| --- | --- |
| 0.75 | CC(C)(C)OC(=O)N[C@@H]1CCN(c2c(F)cc3c(=O)c(C(=O)NCCCN)cn4c3c2Oc2cc3ccccc3cc2-4)C1 [compound 428] |
| 1.75 | CN1CCN(CCCNC(=O)c2cn3c4cc5c(cc4oc4c(NCCCN6CCOCC6)c(F)cc(c2=O)c43)c(=O)c2ccccc25)CC1 [compound 209] |
| 1.75 | CN(C)CCCCNC(=O)c1cn2c3c(c(NCCCCN(C)C)c(F)cc3c1=O)Oc1cc3ccccc3cc1-2 [compound 126] |
| 1.75 | NC1CCN(C(=O)c2cn3c4c(c(N5CC6CCCNC6C5)c(F)cc4c2=O)Oc2cc4ccccc4cc2-3)C1 (centres unmarked) [compound 282] |
| 1.75 | CC1CCN(CCCNC(=O)c2cn3c4c(c(N5CCC(NC(=O)OC(C)(C)C)C5)c(F)cc4c2=O)Oc2cc4ccccc4cc2-3)CC1 (centres unmarked) [compound 243] |
| 2.5 | CN1CCN(CCCNC(=O)c2cn3c4c(c(NCCN5CCCC5)c(F)cc4c2=O)Oc2cc4ccccc4cc2-3)CC1 [compound 71] |
| 1.75 | CN(C)CCCCNc1c(F)cc2c(=O)c(C(=O)NCCN3CCOCC3)cn3c2c1Oc1cc2c(cc1-3)oc1ccccc12 [compound 163] |
| 1.75 | CN1CCN(CCCNC(=O)c2cn3c4c(c(N5CCC(NC(=O)OC(C)(C)C)C5)c(F)c(N)c4c2=O)Oc2cc4ccccc4cc2-3)CC1 (centres unmarked) [compound 231] |
| 2.5 | NC1CCN(C(=O)c2cn3c4cc5c(=O)c6ccccc6c(=O)c5cc4oc4c(NCCCN5CCOCC5)c(F)cc(c2=O)c43)C1 (centres unmarked) [compound 94] |
| 0.75 | O=C(NCCN1CCCC1)c1cn2c3cc4c(cc3oc3c(NCCN5CCOCC5)c(F)cc(c1=O)c32)c(=O)c1ccccc14 [compound 419] |
| 2.5 | O=C(NCCCN1CCOCC1)c1cn2c3c(c(NCCCN4CCOCC4)c(F)cc3c1=O)Oc1ccccc1-2 [compound 47] |
